Measurements taken from publication PMC8032764 (Scientific Reports, 2021).
Where “and” joins values, the source holds several entries; their conditions need not be identical. Identical values can stand only once.

How the values were obtained:
human GABAA α5β3γ2 = human GABAA α5β3γ2 (Homo sapiens, UniProt P18507+P31644); test: biochemical; conditions: 1 nM [3H]-flumazenil
Description: (§1) HEK293-EBNA cells adapted to grow in suspension were transiently transfected with the plasmids containing the desired GABAA receptor subunit cDNAs at α, β, γ, 1:1:2 ratio using XtremeGENE Q2 (Cat. No. 03045595001, Roche Applied Science, RAS, Rotkreuz, Switzerland) as previously described. GABAA α1β2γ2, α2β3γ2, α3β3γ2, α4β3γ2, α5β3γ2 and α6β3γ2 receptor subtypes were expressed in this system. 48 h post transfection, the cells were harvested and washed three times with cold PBS and frozen at − 80 °C.
Non-specific binding was determined in the presence of 10 μM diazepam.

human α4β3γ2 = target: T1, human α4β3γ2 (Homo sapiens, UniProt P18507+P48169); test: [3H]-Ro 15-4513 competition binding; conditions: at > 3 µM; data not shown
T1 construct: expressed in transfected cells; host or cells: HEK293-EBNA, transient
Description: as §1
(§2) IC50 values were derived from the inhibition curve and Ki values were calculated as described below.

human α6β3γ2 = target: T2, human α6β3γ2 (Homo sapiens, UniProt P18507+Q16445); test: [3H]-Ro 15-4513 competition binding; conditions: at > 3 µM; data not shown
T2 construct: expressed in transfected cells; host or cells: HEK293-EBNA, transient
Description: as §1, §2

[1] = system: Adrenergic α2 (non-selective); test: Cerep binding; conditions: 10 μM; [3H]RX 821002; rat cerebral cortex
Dopamine D3 = system: T3, Dopamine D3; test: Cerep binding; set-up: species or system human; conditions: 10 μM; [3H]spiperone; hum. recomb. (CHO)
T3 construct: host or cells: CHO

Dopamine D4.4 = system: T4, Dopamine D4.4; test: Cerep binding; set-up: species or system human; conditions: 10 μM; [3H]spiperone; hum. recomb. (CHO)
T4 construct: host or cells: CHO

Histamine H1 = system: T5, Histamine H1; test: Cerep binding; set-up: species or system human; conditions: 10 μM; [3H]pyrilamine; hum. recomb. (HEK-293)
T5 construct: host or cells: HEK-293

Muscarinic M1 = system: T6, Muscarinic M1; test: Cerep binding; set-up: species or system human; conditions: 10 μM; [3H]pirenzepine; hum. recomb. (CHO)
T6 construct: host or cells: CHO

Muscarinic M5 = system: T7, Muscarinic M5; test: Cerep binding; set-up: species or system human; conditions: 10 μM; [3H]4-DAMP; hum. recomb. (CHO)
T7 construct: host or cells: CHO

Prostanoid EP4 = system: T8, Prostanoid EP4; test: Cerep binding; set-up: species or system human; conditions: 10 μM; [3H]PGE2; hum. recomb. (CHO)
T8 construct: host or cells: CHO

Prostanoid IP (PGI2) = system: T9, Prostanoid IP (PGI2); test: Cerep binding; set-up: species or system human; conditions: 10 μM; [3H]iloprost; hum. recomb. (HEK-293)
T9 construct: host or cells: HEK-293

Purinergic P2Y = test: Cerep binding; conditions: 10 μM; [35S]dATPαS; rat cerebral cortex
Serotonin 5-HT2A = system: T10, Serotonin 5-HT2A; test: Cerep binding; set-up: species or system human; conditions: 10 μM; [3H]ketanserin; hum. recomb. (HEK-293)
T10 construct: purchased Eurofins Cerep

Serotonin 5-HT7 = system: T11, Serotonin 5-HT7; test: Cerep binding; set-up: species or system human; conditions: 10 μM; [3H]LSD; hum. recomb. (CHO)
T11 construct: purchased Eurofins Cerep

Sigma (non-selective) = test: Cerep binding; conditions: 10 μM; [3H]DTG; rat cerebral cortex
Angiotensin AT2 = system: T12, Angiotensin AT2; test: Cerep binding; set-up: species or system human; conditions: 10 μM; [125I]CGP 42112A; hum. recomb. (CHO)
T12 construct: purchased Eurofins Cerep

Galanin 1 = system: T13, Galanin 1; test: Cerep binding; set-up: species or system human; conditions: 10 μM; [125I]galanin; hum. recomb. (HEK-293)
T13 construct: purchased Eurofins Cerep

Galanin 2 = system: T14, Galanin 2; test: Cerep binding; set-up: species or system human; conditions: 10 μM; [125I]galanin; hum. recomb. (CHO)
T14 construct: purchased Eurofins Cerep

Chemokine CXCR2 (IL-8B) = system: T15, Chemokine CXCR2 (IL-8B); test: Cerep binding; set-up: species or system human; conditions: 10 μM; [125I]IL-8; hum. recomb. (HEK-293)
T15 construct: purchased Eurofins Cerep

Chemokine CCR1 = system: T16, Chemokine CCR1; test: Cerep binding; set-up: species or system human; conditions: 10 μM; [125I]MIP-1a; hum. recomb. (HEK-293)
T16 construct: purchased Eurofins Cerep

[2] = system: T17, Vasoactive intestinal peptide PAC1 (PACAP); test: Cerep binding; set-up: species or system human; conditions: 10 μM; [125I]PACAP1-27; hum. recomb. (CHO)
T17 construct: host or cells: CHO

[3] = system: T18, Vasoactive intestinal peptide VPAC1 (VIP1); test: Cerep binding; set-up: species or system human; conditions: 10 μM; [125I]VIP; hum. recomb. (CHO)
T18 construct: host or cells: CHO

Glucocorticoid = system: T19, Glucocorticoid; test: Cerep binding; set-up: species or system human; conditions: 10 μM; [3H]dexamethasone; hum., IM-9 cells, cytosol
T19 construct: hum., IM-9 cells,; host or cells: IM-9 cells, cytosol

[4] = Plasma levels, parallel dose groups of water maze; type: in vivo, rat; conditions: 10 mg/kg p.o., 30 min
Description: Plasma samples were collected and frozen at − 80 °C for later analysis.
(§3) The calibration range was from 1.0 to 5000 ng/mL. After protein precipitation with ethanol, the sample solution was injected onto a Gemini C18 trapping column (2 × 10 mm; Phenomenex, Torrance, CA, USA) and polar endogenous compounds and salts were rinsed off. Analytical separation was performed on an Atlantis T3 column (2.1 × 50 mm) (Waters, Milford, MA, USA), using methanol/water containing 0.1% formic acid as mobile phase. A drug analogue was used as an internal standard.

[5] = Pharmacokinetics, single oral dosing; type: in vivo, Cynomolgus macaque; conditions: cynomolgus monkey, plasma, 10 mg/kg oral, microsuspension, n = 3 male
Description: Concentrations were chosen to achieve the desired doses by administering 5 mL/kg to rats and 2.5 mL/kg to NHPs via oral gavage.
as §3

[6] = Pharmacokinetics, single intravenous dosing; type: in vivo; conditions: C57/Bl6, mouse, plasma, 2.0 mg/kg i.v., 2 male
rats = test: GLP toxicology and safety pharmacology, daily oral administration; type: in vivo, rat; conditions: supra-therapeutic plasma exposures, up to 26 weeks
non-impaired rodents = test: Cognitive performance in non-impaired rodents; type: in vivo; conditions: data not shown

Cc1onc(-c2ccc(F)cc2)c1COc1ccc(C(=O)N2CCS(=O)(=O)CC2)cn1 [basmisanil]
Ki (human GABAA α5β3γ2): 5 nM and 5.1 nM | binding (human α4β3γ2): no binding | binding (human α6β3γ2): no binding | % Inhibition [1]: -8% | % Inhibition (Dopamine D3): 3% | % Inhibition (Dopamine D4.4): 9% | % Inhibition (Histamine H1): 10% | % Inhibition (Muscarinic M1): 6% | % Inhibition (Muscarinic M5): -7% | % Inhibition (Prostanoid EP4): 3% | % Inhibition (Prostanoid IP (PGI2)): -1% | % Inhibition (Purinergic P2Y): 9% | % Inhibition (Serotonin 5-HT2A): -9% | % Inhibition (Serotonin 5-HT7): 13% | % Inhibition (Sigma (non-selective)): 58% | % Inhibition (Angiotensin AT2): -3% | % Inhibition (Galanin 1): 0% | % Inhibition (Galanin 2): -1% | % Inhibition (Chemokine CXCR2 (IL-8B)): -3% | % Inhibition (Chemokine CCR1): -2% | % Inhibition [2]: -16% | % Inhibition [3]: 0% | % Inhibition (Glucocorticoid): -2% | maximal plasma level [4]: 903 ± 13 ng/mL | bioavailability [5]: 48% | Tmax ([5]; median, read-out: Tmax (range)): 1.5 h | AUC(0-t) ([5]; ± standard deviation): 27500 ng·h/mL | Cmax ([5]; ± standard deviation): 3650 ± 110 ng/mL | half-life [6]: 0.5 h | clearance ([6]; read-out: Total CL): 37 mL/min/kg | Vd ([6]; read-out: Vss): 1.3 L/kg | convulsions and EEG alterations (rats): no convulsions and no EEG alterations | enhancement of cognitive performance (non-impaired rodents): have not shown enhancement of cognitive performance
